From PMC7899551, “Phase 1 study of Z-endoxifen in patients with advanced gynecologic, desmoid, and hormone receptor-positive solid tumors” (Oncotarget, 2021)
Several values for one entry are separate records, joined by “and”; a condition that tells them apart may be missing. Identical values can stand only once.

Legend:
ERα = conditions: cited from earlier work
ERβ = conditions: cited from earlier work
[1] = Plasma pharmacokinetics of Z-endoxifen (HPLC assay, non-compartmental analysis); type: in vivo, human
Experimental: This was an open-label trial of Z-endoxifen in patients with advanced solid tumors (https://clinicaltrials.gov/ identifier: NCT01273168). Z-endoxifen-HCl was supplied by the Pharmaceutical Management Branch, National Cancer Institute, as 20 and 40 mg capsules; agent was administered orally once daily on a continuous schedule in 28-day cycles with a starting dose of 20 mg/day taken either 1 hour before or 2 hours after meals. Dose escalation followed a traditional 3+3 design in which patients were dose-escalated to the next dose level (DL) in cohorts of 3 patients until dose-limiting toxicity (DLT) was observed. DLT was defined as an adverse event that occurred during cycle 1, was thought to be related to study drug administration, and met one of the following criteria: grade ≥ 3 non-hematologic toxicities (except diarrhea, nausea and vomiting, alopecia, rising creatinine or electrolyte toxicities that resolved within 24 hours, or intolerable estrogen withdrawal symptoms) or grade ≥ 3 hematologic toxicities (except neutropenia lasting less than 5 days, lymphopenia, or anemia). Eight dose levels (DL1-8) were examined: 20, 40, 60, 100, 140, 200, 280, and 360 mg, respectively. Two patients at DL8 received the free base form of Z-endoxifen on day 1 rather than the hydrochloride salt to assess the pharmacokinetics of that formulation.
A 3-mL blood sample was collected in a K2 EDTA tube on day 1 of cycle 1 before drug administration and at the following times post-first dose: 0.5, 1, 2, 3, 4, 6, 8, and 24 hours. Samples were collected at the same time points on day 28 of cycle 1 for DL1-6 until a protocol amendment eliminated the requirement for these samples at the higher dose levels. Samples were wrapped in aluminum foil after collection to protect from light exposure. A 10-mL aliquot of urine was collected before agent administration on cycle 1 day 1, for 24 hours after dosing on day 1, and before drug administration on cycle 2 day 1; samples were refrigerated prior to analysis.
Plasma and urine concentrations of Z- and E-endoxifen were measured using a validated, post-column fluorescence derivatization HPLC assay. Non-compartmental pharmacokinetic parameters were calculated using WinNonlin version 7.0 (Pharsight Corp., Mountainview, CA, USA). A 2 μM Cmax target was established for day 28 plasma concentration. The amount of Z-endoxifen excreted in urine was measured over a 24-hour collection period.

[2] = system: hormone-refractory prostate cancer; conditions: 200 mg/m^2/day, men with hormone-refractory prostate cancer; cited from earlier work
ovarian cancer = conditions: patients with ovarian cancer; cited from earlier work
[3] = system: metastatic ER+ breast cancer; conditions: women with metastatic ER+ breast cancer; cited from earlier work
[4] = free base, 360 mg oral, day 1, mean of patients 35 and 36
[5] = free base, 360 mg oral, day 1, patients 35 and 36 individually

CC/C(=C(\c1ccc(O)cc1)c1ccc(OCCNC)cc1)c1ccccc1 [Endoxifen, 4-hydroxy-N-desmethyl-tamoxifen]
binding affinity relative to tamoxifen or NDM-tamoxifen (ERα): approximately 100 fold | binding affinity relative to tamoxifen or NDM-tamoxifen (ERβ): approximately 100 fold

CC/C(=C(\c1ccc(O)cc1)c1ccc(OCCNC)cc1)c1ccccc1 [free base form of Z-endoxifen]
AUC(0–24 h), Mean [1, 4]: 25248 ng·h/mL | C24 h, Mean [1, 4]: 790 ng/mL | Cmax, Mean [1, 4]: 1770 ng/mL | Tmax, Mean [1, 4]: 5.0 h | AUC(0–24 h) [1, 5]: 8959 ng·h/mL and 41537 ng·h/mL | C24h [1, 5]: 12 ng/mL and 1568 ng/mL | Tmax [1, 5]: 6.0 h and 4.0 h

4-hydroxy-tamoxifen
binding affinity relative to tamoxifen or NDM-tamoxifen (ERα): approximately 100 fold | binding affinity relative to tamoxifen or NDM-tamoxifen (ERβ): approximately 100 fold

CC/C(=C(\c1ccccc1)c1ccc(OCCN(C)C)cc1)c1ccccc1 [tamoxifen]
mean plasma tamoxifen concentration [2]: 2.94 (± 1.15) μM | complete responses (ovarian cancer): 4% | partial responses (ovarian cancer): 9% | stable disease (ovarian cancer): 38% | women deriving benefit [3]: about 50%

CC/C(=C(/c1ccc(O)cc1)c1ccc(OCCNC)cc1)c1ccccc1 [E-endoxifen]
Plasma concentration as percentage of Z-endoxifen levels ([1]; after oral Z-endoxifen): < 2%
